For assay [1], the system named is MDR strains (2638, 3072, and 24530) of P. aeruginosa. In words: Growth inhibition by F127-(DFO-Ga)2/ERY, MDR strains. Format: cell-based, Pseudomonas aeruginosa. The conditions noted are these: 244 μM F127-(DFO-Ga)2 and/or 50 μg/mL ERY. As to the method:
At time points of 0, 1, 2, and 4 hours, a small aliquot was removed from the broth culture, logarithmically diluted in M9 salts, and then spread onto cation-adjusted Mueller-Hinton agar plates. After overnight incubation at 37° C., colonies were counted and the number of CFU/mL was calculated.

The test system of assay [2] is P. aeruginosa PAO1. In words: Broth microdilution MIC / FICI. It is filed as cell-based. The conditions noted are these: Pseudomonas aeruginosa. On the procedure:
(§1) Antimicrobial efficacy was assessed by the broth microdilution assay in accordance with NCCLS guidelines (Coyle, Marie B. Manual of antimicrobial susceptibility testing. American Society for Microbiology, 2005). Organisms were grown overnight on non-selective MHA medium in order to obtain single colonies. Three to five morphologically distinct colonies were touched with a sterile pipet tip and transferred to a culture tube containing MHB (4 mL), and the broth culture was incubated at 37° C. until its turbidity matched a 0.5 McFarland Standard. The inoculum was then diluted 1:20 in sterile water, followed by a 1:10 dilution when inoculating wells of a 96-well plate. […] For combinations, the fractional inhibitory concentration index (FICI) was calculated using the following equation: [formula]

For assay [3], the system named is P. aeruginosa ATCC 27853. Nature of the assay: Broth microdilution MIC / FICI. The following applies: Pseudomonas aeruginosa, ATCC27853. It is filed as cell-based. As to the method: as §1
A further assay has as its system E. coli ATCC 25922. In words: Broth microdilution MIC / FICI. Format: cell-based. The following applies: Escherichia coli, ATCC25922. On the procedure: as §1
The test system of assay [4] is P. aeruginosa reference strains (ATCC 27853 and PAO1). In words: Dose response of growth (OD600) to F127-(DFO-Ga)2/ERY. It is filed as cell-based, Pseudomonas aeruginosa. The following applies: 50 μg/mL ERY alone.
In assay [5] the test system is P. aeruginosa PAO1. Nature of the assay: Disk diffusion, zones of inhibition. Format: cell-based, Pseudomonas aeruginosa. On the procedure: (§2) Single colonies were grown in MHB to match a 0.5 McFarland standard. A sterile cotton swab was dipped into the various MDR strain inoculums and spread evenly over the surface of the agar plates. Purchased antibiotic-containing disks at fixed concentrations (Table 4) were placed on the surface of each plate and incubated overnight at 37° C. Zones of inhibition were measured the following morning. Measurements included the diameter (d) of the antibiotic disk (6 mm) and are reported in terms of diameters and areas. […] Typically for diameters, R<10, I 11-15, and S>15 where R=resistance, I=intermediate resistance, and S=susceptible.

Assay [6] has as its system P. aeruginosa MDR strain 24530. In words: Disk diffusion, zones of inhibition. Format: cell-based, Pseudomonas aeruginosa. As to the method: as §2
Assay [7] concerns P. aeruginosa MDR strain 3072. Nature of the assay: Disk diffusion, zones of inhibition. Format: cell-based, Pseudomonas aeruginosa. As to the method: as §2
Assay [8] deals with P. aeruginosa ATCC 27853. Nature of the assay: Disk diffusion, zones of inhibition. The following applies: for zone of inhibition, A: same disks and plates. It is filed as cell-based, Pseudomonas aeruginosa. As to the method: as §2
A further assay has as its system P. aeruginosa MDR 24530. In words: Broth microdilution MIC / FICI. The conditions noted are these: Pseudomonas aeruginosa, MDR24530. Format: cell-based. On the procedure:
as §1, with “[formula]” left out

For the next assay, the system named is P. aeruginosa MDR 2638. In words: Broth microdilution MIC / FICI. Format: cell-based. The conditions noted are these: Pseudomonas aeruginosa, MDR2638. As to the method: as §1, with “[formula]” left out
In a further assay the test system is P. aeruginosa MDR 3072. In words: Broth microdilution MIC / FICI. Format: cell-based. The conditions noted are these: Pseudomonas aeruginosa, MDR3072. As to the method:
as §1, with “[formula]” left out

Where [9] appears, read: P. aeruginosa PAO1, Example 9, read-out: MIC (Table 7, agent alone).
Setting [10] is: P. aeruginosa ATCC 27853, Example 9, read-out: MIC (Table 7, agent alone).
The mark [11] stands for this setting: E. coli ATCC 25922, Example 9, read-out: MIC (Table 7, agent alone).
Where [12] appears, read: E. coli ATCC 25922, antibiotic alone, Table 3, read-out: MIC.
Where [13] appears, read: Pseudomonas aeruginosa, PAO1, disks NVB 30 μg, ERY 15 μg, RIF 5 μg, VAN 30 μg, MHA with or without 256 μM DG-F125, includes 6 mm disk, read-out: zone of inhibition, d.
[14] abbreviates: Pseudomonas aeruginosa, 24530, disks NVB 30 μg, ERY 15 μg, RIF 5 μg, VAN 30 μg, MHA with or without 256 μM DG-F125, includes 6 mm disk, read-out: zone of inhibition, d.
[15] abbreviates: Pseudomonas aeruginosa, 3072, disks NVB 30 μg, ERY 15 μg, RIF 5 μg, VAN 30 μg, MHA with or without 256 μM DG-F125, includes 6 mm disk, read-out: zone of inhibition, d.
[16] abbreviates: Pseudomonas aeruginosa, ATCC27853, 27853, disks NVB 30 μg, ERY 15 μg, RIF 5 μg, VAN 30 μg, MHA with or without 256 μM DG-F125, includes 6 mm disk, read-out: zone of inhibition, d.
Setting [17] is: Pseudomonas aeruginosa, read-out: zone of inhibition, d.

Consider 3 compounds from patent US11147778B2, “Siderophore-polymer conjugates for increasing bacterial sensitivity to antibiotics” (Wisconsin Alumni Research Foundation, priority 2016, dated 2021).

Like-named read-outs stand apart in the source and are kept apart here.

Take `CC[C@H]1OC(=O)[C@H](C)[C@@H](O[C@H]2C[C@@](C)(OC)[C@@H](O)[C@H](C)O2)[C@H](C)[C@@H](O[C@@H]2O[C@H](C)C[C@H](N(C)C)[C@H]2O)[C@](C)(O)C[C@@H](C)C(=O)[C@H](C)[C@@H](O)[C@]1(C)O` [ERY, erythromycin]: the bacterial growth result in [1] was “similarly ineffective”. Further, the MIC was 256 mg/L with P. aeruginosa PAO1 [2] (PAO1); > 128 mg/L with P. aeruginosa PAO1 [2] (setting [9]); 256 mg/L in the assay on P. aeruginosa ATCC 27853 [3]; > 128 mg/L with P. aeruginosa ATCC 27853 [3] (setting [10]); 32 mg/L in the assay with E. coli ATCC 25922 (setting [11]); 32 mg/L in the assay with E. coli ATCC 25922 (setting [12]). Moreover, the MIC in the assay with P. aeruginosa MDR 24530, in the assay on P. aeruginosa MDR 2638 and in the assay with P. aeruginosa MDR 3072 was 512 mg/L throughout. The “reduction in the OD600 compared to the positive control” value in assay [4] is recorded as “approximately 40%”. Moreover, the “zone of inhibition, A” value in the assay with P. aeruginosa PAO1 [5] (PAO1, same disks and plates) is 64 mm^2; in assay [6] (24530, same disks and plates), 0 mm^2; in assay [7] (3072, same disks and plates), 0 mm^2; in the assay on P. aeruginosa ATCC 27853 [8] (27853), 95 mm^2. The zone of inhibition at 15 µg/disc was 9 mm in the assay with P. aeruginosa PAO1 [5] (setting [13]), 0 mm in [6] (setting [14]), 0 mm in assay [7] (setting [15]) and 11 mm in the assay on P. aeruginosa ATCC 27853 [8] (setting [16]). Further, the “A of region where some growth is still visible (in parentheses)” value in assay [6] (24530, same disks and plates) is recorded as “(133) mm^2”; in assay [7] (3072, same disks and plates), “(283) mm^2”. Besides, the “d of region where some growth is still visible (in parentheses)” value in assay [6] (24530, same disks and plates) is “(13) mm”; in [7] (3072, same disks and plates), “(19) mm”.
On to `CN[C@H](CC(C)C)C(=O)N[C@H]1C(=O)N[C@@H](CC(N)=O)C(=O)N[C@H]2C(=O)N[C@H]3C(=O)N[C@H](C(=O)N[C@H](C(=O)O)c4cc(O)cc(O)c4-c4cc3ccc4O)[C@H](O)c3ccc(c(Cl)c3)Oc3cc2cc(c3O[C@@H]2O[C@H](CO)[C@@H](O)[C@H](O)[C@H]2O[C@H]2C[C@](C)(N)[C@H](O)[C@H](C)O2)Oc2ccc(cc2Cl)[C@H]1O` [VAN, vancomycin], for which the minimal inhibitory concentration (MIC) in the assay on P. aeruginosa PAO1 [2] (PAO1) was > 1020 mg/L; with P. aeruginosa ATCC 27853 [3] it was > 1020 mg/L; in the assay with E. coli ATCC 25922 it was 128 mg/L; with P. aeruginosa MDR 24530, 1020 mg/L; in the assay with P. aeruginosa MDR 2638, 512 mg/L; in the assay on P. aeruginosa MDR 3072 it was > 1020 mg/L. For the same compound, in the assay with P. aeruginosa PAO1 [5] (PAO1, same disks and plates), the “A of region where some growth is still visible (in parentheses)” value was 64 mm^2. The “d of region where some growth is still visible (in parentheses)” value with P. aeruginosa PAO1 [5] (PAO1, same disks and plates) is recorded as 9 mm. Also, the “zone of inhibition, A” value in the assay on P. aeruginosa PAO1 [5] (PAO1, same disks and plates) is on record as 0 mm^2; in [6] (24530, same disks and plates), 0 mm^2; in assay [7] (3072, same disks and plates), 0 mm^2; in the assay with P. aeruginosa ATCC 27853 [8] (27853), 0 mm^2. For the same compound, the zone of inhibition at 30 µg/disc worked out at 0 mm in the assay with P. aeruginosa PAO1 [5] (Pseudomonas aeruginosa, PAO1, read-out: zone of inhibition, d); 0 mm in assay [6] (setting [17]); 0 mm in assay [7] (setting [17]); 0 mm in the assay on P. aeruginosa ATCC 27853 [8] (Pseudomonas aeruginosa, ATCC27853, read-out: zone of inhibition, d).
Take `CO[C@@H]1[C@@H](OC(N)=O)[C@@H](O)[C@H](Oc2ccc3c(O)c(NC(=O)c4ccc(O)c(CC=C(C)C)c4)c(=O)oc3c2C)OC1(C)C` [NVB, novobiocin sodium]: the MIC in the assay with P. aeruginosa PAO1 [2] (setting [9]) was > 128 mg/L; with P. aeruginosa PAO1 [2] (PAO1, antibiotic alone, Table 3, read-out: MIC), > 512 mg/L; in the assay on P. aeruginosa ATCC 27853 [3], 128 mg/L; with P. aeruginosa ATCC 27853 [3] (setting [10]) it was > 128 mg/L; in the assay with E. coli ATCC 25922 (setting [11]), 48 mg/L; with E. coli ATCC 25922 (setting [12]) it was 32 mg/L. The minimum inhibitory concentration (MIC) was > 512 mg/L in the assay with P. aeruginosa MDR 24530 (MDR 24530, antibiotic alone, read-out: MIC); > 512 mg/L in the assay on P. aeruginosa MDR 2638 (MDR 2638, antibiotic alone, read-out: MIC); > 512 mg/L with P. aeruginosa MDR 3072 (MDR 3072, antibiotic alone, read-out: MIC). In addition, the “zone of inhibition, A” value is 0 mm^2 in the assay with P. aeruginosa PAO1 [5] (PAO1, same disks and plates); 0 mm^2 in assay [6] (24530, same disks and plates); 0 mm^2 in [7] (3072, same disks and plates); 44 mm^2 in the assay with P. aeruginosa ATCC 27853 [8] (27853). The zone of inhibition at 30 µg/disc turned out to be 0 mm in the assay with P. aeruginosa PAO1 [5] (setting [13]), 0 mm in assay [6] (setting [14]), 0 mm in assay [7] (setting [15]) and 7.5 mm in the assay with P. aeruginosa ATCC 27853 [8] (setting [16]).
